Measured values published in PubChem BioAssay AID2060341 (Molecular Pharmacology Branch, DTP, NCI, 2025).
pIC50: −log10 of the molar value. Several values for one entry are separate records, joined by “and”; a condition that tells them apart may be missing. Identical values can stand only once.

Test system: 327498-153-R-J2-PDC multicell spheroid viability
Experiment: Anticancer human tumor 327498-153-R-J2-PDC patient-derived uterine carcinosarcoma cell line growth inhibition [IpAb]
Details: for viability, T/C: stronger effect = lower value
Procedure, shortened: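 Spheroids of 60% malignant cells, 25% HUVEC and 15% MSC were exposed to targeted agents combined with ipatasertib or abemaciclib. Doses started at or near clinical Cmax (10 microM when unknown) and fell in half-log steps.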

[1] = curve of first compound, second compound 0.1 µM
[2] = curve of first compound, second compound 0.316 µM
[3] = curve of first compound, second compound 1 µM
[4] = curve of first compound, second compound 3.16 µM
[5] = curve of first compound, second compound 10 µM
[6] = second compound 0.1 µM, first compound 0.0316 µM
[7] = second compound 0.1 µM, first compound 0.1 µM
[8] = second compound 0.316 µM, first compound 0.0316 µM
[9] = second compound 0.316 µM, first compound 0.1 µM
[10] = second compound 1 µM, first compound 0.0316 µM
[11] = second compound 1 µM, first compound 0.1 µM
[12] = second compound 3.16 µM, first compound 0.0316 µM
[13] = second compound 3.16 µM, first compound 0.1 µM
[14] = second compound 10 µM, first compound 0.0316 µM
[15] = second compound 10 µM, first compound 0.1 µM
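Throughout, for viability, T/C: 100% = DMSO vehicle control viability.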

For Cn1ncnc1[C@H]1c2n[nH]c(=O)c3cc(F)cc(c23)N[C@@H]1c1ccc(F)cc1 + CC(C)NCC(C(=O)N1CCN(c2ncnc3c2C(C)CC3O)CC1)c1ccc(Cl)cc1, the pIC50 [1] was 7.63, the pIC50 [2] was 8.06 and the pIC50 [3] was 8.80. For the same molecule, the pIC50 [4] was 9.24, the pIC50 [5] was > 9.50 and the viability, T/C (second compound 0.1 µM, first compound 0.000316 µM) was 94.7%. For the same molecule, the viability, T/C (second compound 0.1 µM, first compound 0.001 µM) was 93.1%, the viability, T/C (second compound 0.1 µM, first compound 0.00316 µM) was 83.7% and the viability, T/C (second compound 0.1 µM, first compound 0.01 µM) was 69.7%. It also gave a viability, T/C [6] of 43.1%, a viability, T/C [7] of 25.1% and a viability, T/C (second compound 0.316 µM, first compound 0.000316 µM) of 74.5%. For the same molecule, the viability, T/C (second compound 0.316 µM, first compound 0.001 µM) was 71.6%, the viability, T/C (second compound 0.316 µM, first compound 0.00316 µM) was 64% and the viability, T/C (second compound 0.316 µM, first compound 0.01 µM) was 47.8%. It also gave a viability, T/C [8] of 31.1%, a viability, T/C [9] of 20.6% and a viability, T/C (second compound 1 µM, first compound 0.000316 µM) of 60%. It also gave a viability, T/C (second compound 1 µM, first compound 0.001 µM) of 57.8%, a viability, T/C (second compound 1 µM, first compound 0.00316 µM) of 39.7% and a viability, T/C (second compound 1 µM, first compound 0.01 µM) of 36.6%. It also gave a viability, T/C [10] of 25.8%, a viability, T/C [11] of 14.7% and a viability, T/C (second compound 3.16 µM, first compound 0.000316 µM) of 48.7%. It also gave a viability, T/C (second compound 3.16 µM, first compound 0.001 µM) of 53.4%, a viability, T/C (second compound 3.16 µM, first compound 0.00316 µM) of 37.8% and a viability, T/C (second compound 3.16 µM, first compound 0.01 µM) of 26.7%. The viability, T/C [12] was 21.1%, the viability, T/C [13] was 12.8% and the viability, T/C (second compound 10 µM, first compound 0.000316 µM) was 39%. It also gave a viability, T/C (second compound 10 µM, first compound 0.001 µM) of 35.2%, a viability, T/C (second compound 10 µM, first compound 0.00316 µM) of 26.9% and a viability, T/C (second compound 10 µM, first compound 0.01 µM) of 20.7%. The viability, T/C [14] was 14.8% and the viability, T/C [15] was 10.4%.

For Cn1ncnc1[C@H]1c2n[nH]c(=O)c3cc(F)cc(c23)N[C@@H]1c1ccc(F)cc1, the viability, T/C (compound 0.000316 µM) was 109% and 99%, the viability, T/C (compound 0.001 µM) was 106% and 99.6% and the viability, T/C (compound 0.00316 µM) was 99.2% and 92.1%. The viability, T/C (compound 0.01 µM) was 74.8% and 65.7%, the viability, T/C (compound 0.0316 µM) was 47.8% and 39% and the viability, T/C (compound 0.1 µM) was 26.5% and 21.4%. The pIC50 (curve of compound) was 7.55 and 7.71.

CC1(C)CCC(CN2CCN(c3ccc(C(=O)NS(=O)(=O)c4ccc(NCC5CCOCC5)c([N+](=O)[O-])c4)c(Oc4cnc5[nH]ccc5c4)c3)CC2)=C(c2ccc(Cl)cc2)C1 + CC(C)NCC(C(=O)N1CCN(c2ncnc3c2C(C)CC3O)CC1)c1ccc(Cl)cc1 gave a pIC50 [1] of 5.27, a pIC50 [2] of 5.40 and a pIC50 [3] of 5.46. For the same molecule, the pIC50 [4] was > 7.50, the pIC50 [5] was > 7.50 and the viability, T/C [6] was 92.4%. The viability, T/C [7] was 96.7%, the viability, T/C (second compound 0.1 µM, first compound 0.316 µM) was 88.8% and the viability, T/C (second compound 0.1 µM, first compound 1 µM) was 91.6%. For the same molecule, the viability, T/C (second compound 0.1 µM, first compound 3.16 µM) was 84.7%, the viability, T/C (second compound 0.1 µM, first compound 10 µM) was 9.23% and the viability, T/C [8] was 84.1%. It also gave a viability, T/C [9] of 76.2%, a viability, T/C (second compound 0.316 µM, first compound 0.316 µM) of 73% and a viability, T/C (second compound 0.316 µM, first compound 1 µM) of 71.5%. It also gave a viability, T/C (second compound 0.316 µM, first compound 3.16 µM) of 62.9%, a viability, T/C (second compound 0.316 µM, first compound 10 µM) of 5.02% and a viability, T/C [10] of 61.5%. The viability, T/C [11] was 57.1%, the viability, T/C (second compound 1 µM, first compound 0.316 µM) was 56% and the viability, T/C (second compound 1 µM, first compound 1 µM) was 51.7%. For the same molecule, the viability, T/C (second compound 1 µM, first compound 3.16 µM) was 54.8%, the viability, T/C (second compound 1 µM, first compound 10 µM) was 2.82% and the viability, T/C [12] was 43.8%. It also gave a viability, T/C [13] of 43.9%, a viability, T/C (second compound 3.16 µM, first compound 0.316 µM) of 43.5% and a viability, T/C (second compound 3.16 µM, first compound 1 µM) of 42.7%. It also gave a viability, T/C (second compound 3.16 µM, first compound 3.16 µM) of 42.9%, a viability, T/C (second compound 3.16 µM, first compound 10 µM) of 1.99% and a viability, T/C [14] of 34.7%. For the same molecule, the viability, T/C [15] was 30.8%, the viability, T/C (second compound 10 µM, first compound 0.316 µM) was 31.3% and the viability, T/C (second compound 10 µM, first compound 1 µM) was 31.1%. The viability, T/C (second compound 10 µM, first compound 3.16 µM) was 26.6% and the viability, T/C (second compound 10 µM, first compound 10 µM) was 0.91%.
